This is an account of results in patent US11485707B2, “Deuterated compounds as rock inhibitors” (Fochon Pharmaceuticals, Ltd., priority 2018, dated 2022).

Each structure is given as a SMILES string. Where a name gives a salt, the structure may show the parent alone.

For the assay the following is noted: male Chinchilla rabbits, topical to right eye once daily for 3 days, 30 μL/eye/dose; dosing on day 3 at 24 h; vs control. Here is the method:
ROCK In Vivo Inhibition Activity-Method C
Eighteen male rabbits were randomly assigned to 3 groups (6 animals/group). […] Clinical observations and ophthalmic examinations were performed once daily. IOP was measured by TONOVET Plus before first dosing, and at 0.5, 2, 4, 6 and 24 h after each first dosing on day 1 and day 3.
The change of IOP % was calculated using the following formula: The change of IOP %(ΔIOP %)=[IOP(time)−IOP(control)]/IOP(control)*100).
Select compounds prepared as described above were assayed according to the biological procedures described in Method C.
In the case of `[2H]c1nccc2cc(NC(=O)[C@H](CN)c3ccc(C([2H])([2H])OC(=O)c4ccc(C([2H])([2H])[2H])cc4C([2H])([2H])[2H])cc3)ccc12` [Example 20, (S)-(4-(3-amino-1-((isoquinolin-6-yl-1-d)amino)-1-oxopropan-2-yl)phenyl) methyl-d2 2,4-bis (methyl-d3)benzoate dihydrochloride], the ΔIOP % was −4.89%.
Under `[2H]c1nccc2cc(NC(=O)[C@@H](c3ccc(C([2H])([2H])OC(=O)c4ccc(C([2H])([2H])[2H])cc4C([2H])([2H])[2H])cc3)C([2H])([2H])N)ccc12` [Example 22, (S)-(4-(3-amino-1-((isoquinolin-6-yl-1-d)amino)-1-oxopropan-2-yl-3,3-d2)phenyl) methyl-d2 2,4-bis (methyl-d3)benzoate dihydrochloride] stands 0.08%; under `[2H]C([2H])([2H])c1ccc(C(=O)OCc2ccc([C@H](C(=O)Nc3ccc4cnccc4c3)C([2H])([2H])N)cc2)c(C([2H])([2H])[2H])c1` [Example 16, (S)-4-(3-amino-1-(isoquinolin-6-ylamino)-1-oxopropan-2-yl-3,3-d2)benzyl 2,4-bis(methyl-d3)benzoate dihydrochloride], −1.44%.
Under `[2H]c1nccc2cc(NC(=O)[C@@]([2H])(c3ccc(C([2H])([2H])OC(=O)c4ccc(C)cc4C)cc3)C([2H])([2H])N)ccc12` [Example 7, (S)-(4-(3-amino-1-((isoquinolin-6-yl-1-d)amino)-1-oxopropan-2-yl-2,3,3-d3)phenyl)methyl-d2 2,4-dimethylbenzoate dihydrochloride] stands 0.48%.
Under `[2H]c1nccc2cc(NC(=O)[C@@H](c3ccc(COC(=O)c4ccc(C)cc4C)cc3)C([2H])([2H])N)ccc12` [Example 4, (S)-4-(3-amino-1-((isoquinolin-6-yl-1-d)amino)-1-oxopropan-2-yl-3,3-d2)benzyl 2,4-dimethylbenzoate dihydrochloride] stands −15.63%.
For the compound `[2H]c1nccc2cc(NC(=O)[C@@H](c3ccc(COC(=O)c4ccc(C([2H])([2H])[2H])cc4C([2H])([2H])[2H])cc3)C([2H])([2H])N)ccc12` [Example 21, (S)-4-(3-amino-1-((isoquinolin-6-yl-1-d)amino)-1-oxopropan-2-yl-3,3-d2) benzyl 2,4-bis(methyl-d3)benzoate dihydrochloride], the ΔIOP % is −5.06%.
The same measure for `[2H]C([2H])(OC(=O)c1ccc(C)cc1C)c1ccc([C@@]([2H])(CN)C(=O)Nc2ccc3cnccc3c2)cc1` [Example 9, (S)-(4-(3-amino-1-(isoquinolin-6-ylamino)-1-oxopropan-2-yl-2-d)phenyl)methyl-d2 2,4-dimethylbenzoate dihydrochloride]: −3.06%.
The same measure for `[2H]c1nccc2cc(NC(=O)[C@]([2H])(CN)c3ccc(C([2H])([2H])OC(=O)c4ccc(C)cc4C)cc3)ccc12` [Example 13, (S)-(4-(3-amino-1-((isoquinolin-6-yl-1-d)amino)-1-oxopropan-2-yl-2-d)phenyl) methyl-d2 2,4-dimethylbenzoate dihydrochloride]: −8.48%.
Under `[2H]C([2H])(N)[C@@H](C(=O)Nc1ccc2cnccc2c1)c1ccc(COC(=O)c2ccc(C)cc2C)cc1` [Example 11, (S)-4-(3-amino-1-(isoquinolin-6-ylamino)-1-oxopropan-2-yl-3,3-d2) benzyl 2,4-dimethylbenzoate dihydrochloride] stands −9.57%; under `[2H]c1nccc2cc(NC(=O)[C@H](CN)c3ccc(COC(=O)c4ccc(C([2H])([2H])[2H])cc4C([2H])([2H])[2H])cc3)ccc12` [Example 19, (S)-4-(3-amino-1-((isoquinolin-6-yl-1-d)amino)-1-oxopropan-2-yl)benzyl 2,4-bis(methyl-d3)benzoate dihydrochloride], −3.3%.
Consider `[2H]C([2H])(OC(=O)c1ccc(C)cc1C)c1ccc([C@]([2H])(C(=O)Nc2ccc3cnccc3c2)C([2H])([2H])N)cc1` [Example 10, (S)-(4-(3-amino-1-(isoquinolin-6-ylamino)-1-oxopropan-2-yl-2,3,3-d3)phenyl)methyl-d2 2,4-dimethylbenzoate dihydrochloride], for which the ΔIOP % was −0.78%.
The same measure for `[2H]C([2H])(OC(=O)c1ccc(C)cc1C)c1ccc([C@H](C(=O)Nc2ccc3cnccc3c2)C([2H])([2H])N)cc1` [Example 8, (S)-(4-(3-amino-1-(isoquinolin-6-ylamino)-1-oxopropan-2-yl-3,3-d2)phenyl)methyl-d2 2,4-dimethylbenzoate dihydrochloride]: −7.52%; for `[2H]C([2H])(OC(=O)c1ccc(C)cc1C)c1ccc([C@@H](CN)C(=O)Nc2ccc3cnccc3c2)cc1` [Example 3, (S)-(4-(3-amino-1-(isoquinolin-6-ylamino)-1-oxopropan-2-yl)phenyl)methyl-d2 2,4-dimethylbenzoate]: −5.02%.
The same measure for `[2H]c1nccc2cc(NC(=O)[C@@H](c3ccc(C([2H])([2H])OC(=O)c4ccc(C)cc4C)cc3)C([2H])([2H])N)ccc12` [Example 12, (S)-(4-(3-amino-1-((isoquinolin-6-yl-1-d)amino)-1-oxopropan-2-yl-3,3-d2)phenyl)methyl-d2 2,4-dimethylbenzoate dihydrochloride]: −5.23%; for `[2H]c1nccc2cc(NC(=O)[C@H](CN)c3ccc(C([2H])([2H])OC(=O)c4ccc(C)cc4C)cc3)ccc12` [Example 18, (S)-(4-(3-amino-1-((isoquinolin-6-yl-1-d)amino)-1-oxopropan-2-yl)phenyl) methyl-d2 2,4-dimethylbenzoate]: −1.1%.
As to `[2H]C([2H])([2H])c1ccc(C(=O)OCc2ccc([C@@H](CN)C(=O)Nc3ccc4cnccc4c3)cc2)c(C([2H])([2H])[2H])c1` [Example 14, (S)-4-(3-amino-1-(isoquinolin-6-ylamino)-1-oxopropan-2-yl)benzyl 2,4-bis(methyl-d3)benzoate dihydrochloride], the ΔIOP % was −5.81%.
Under `[2H]C([2H])([2H])c1ccc(C(=O)OC([2H])([2H])c2ccc([C@]([2H])(C(=O)Nc3ccc4cnccc4c3)C([2H])([2H])N)cc2)c(C([2H])([2H])[2H])c1` [Example 5, (S)-(4-(3-amino-1-(isoquinolin-6-ylamino)-1-oxopropan-2-yl-2,3,3-d3)phenyl)methyl-d2 2,4-bis(methyl-d3)benzoate dihydrochloride] stands 1.19%.
With `[2H]C([2H])([2H])c1ccc(C(=O)OC([2H])([2H])c2ccc([C@@H](CN)C(=O)Nc3ccc4cnccc4c3)cc2)c(C([2H])([2H])[2H])c1` [Example 15, (S)-(4-(3-amino-1-(isoquinolin-6-ylamino)-1-oxopropan-2-yl)phenyl)methyl-d2 2,4-bis(methyl-d3)benzoate dihydrochloride], the ΔIOP % is recorded as −4.25%.
Under `[2H]c1nccc2cc(NC(=O)[C@H](CN)c3ccc(COC(=O)c4ccc(C)cc4C)cc3)ccc12` [Example 1, (S)-4-(3-amino-1-((isoquinolin-6-yl-1-d)amino)-1-oxopropan-2-yl)benzyl 2,4-dimethylbenzoate] stands −1.5%; under `Cc1ccc(C(=O)OCc2ccc([C@@H](CN)C(=O)Nc3ccc4cnccc4c3)cc2)c(C)c1.Cl.Cl` [Reference compound 1, (S)-4-(3-amino-1-(isoquinolin-6-ylamino)-1-oxopropan-2-yl)benzyl 2,4-dimethylbenzoate dihydrochloride, reference compound], −4.35%; under `[2H]c1nccc2cc(NC(=O)[C@]([2H])(CN)c3ccc(C([2H])([2H])OC(=O)c4ccc(C([2H])([2H])[2H])cc4C([2H])([2H])[2H])cc3)ccc12` [Example 23, (S)-(4-(3-amino-1-((isoquinolin-6-yl-1-d)amino)-1-oxopropan-2-yl-2-d)phenyl) methyl-d2 2,4-bis (methyl-d3)benzoate dihydrochloride], −0.87%.
Take `[2H]C([2H])([2H])c1ccc(C(=O)OC([2H])([2H])c2ccc([C@@]([2H])(CN)C(=O)Nc3ccc4cnccc4c3)cc2)c(C([2H])([2H])[2H])c1` [Example 6, (S)-(4-(3-amino-1-(isoquinolin-6-ylamino)-1-oxopropan-2-yl-2-d)phenyl)methyl-d2 2,4-bis(methyl-d3)benzoate dihydrochloride]: the ΔIOP % is on record as −16.08%.
